This passage reports Ki results from ChEMBL document CHEMBL1128470, “Novel angiotensin II receptor antagonists. Design, synthesis, and in vitro evaluation of dibenzo[a,d]cycloheptene and dibenzo[b,f]oxepin derivatives. Searching for bioisosteres of biphenylyltetrazole using a three-dimensional search technique” (J Med Chem, 1995).

This test concerns the target T1, Type-1 angiotensin II receptor (Homo sapiens, UniProt P30556).
T1 sequence (P30556 whole entry): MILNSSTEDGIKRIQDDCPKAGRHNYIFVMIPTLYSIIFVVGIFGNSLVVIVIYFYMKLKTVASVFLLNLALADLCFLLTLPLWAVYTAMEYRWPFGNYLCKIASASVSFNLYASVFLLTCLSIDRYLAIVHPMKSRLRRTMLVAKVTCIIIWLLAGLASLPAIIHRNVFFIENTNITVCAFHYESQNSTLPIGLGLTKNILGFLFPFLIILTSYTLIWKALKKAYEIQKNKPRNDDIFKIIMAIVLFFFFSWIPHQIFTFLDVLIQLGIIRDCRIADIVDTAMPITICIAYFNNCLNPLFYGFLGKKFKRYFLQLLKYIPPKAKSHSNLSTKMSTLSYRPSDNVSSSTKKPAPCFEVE
Description: Ability to displace [125I]AII binding to COS cells transfected with a cDNA encoding human Angiotensin II receptor, type 1. The test is classed as cell-based.

The structures appear in SMILES notation.

The Ki is a dissociation constant, usually derived from enzyme kinetics or from competition with a known ligand. Low values mean higher affinity, high ones lower affinity. Regarding `CCc1cc(OCc2ccc3c(-c4nnn[nH]4)cc4ccccc4c(=O)c3c2)c2cc(C(=O)O)ccc2n1`, the affinity, expressed as Ki, was 2.7 nM.
As for `CCCCC(=O)N(Cc1ccc2c(c1)Oc1ccccc1C=C2c1nnn[nH]1)[C@H](C(=O)O)C(C)C`, the Ki amounted to 9.6 nM.
For `CCc1nc2c(C)cc(C)nc2n1Cc1ccc2c(-c3nnn[nH]3)cc3ccccc3c(=O)c2c1` the value was 0.66 nM.
Regarding `CCCc1nc2c(C)cc(C)nc2n1Cc1ccc2c(c1)Oc1ccccc1C=C2c1nnn[nH]1`, the Ki came to 0.7 nM.
In turn, `CCc1cc(NCc2ccc3c(-c4nnn[nH]4)cc4ccccc4c(=O)c3c2)n2nccc2n1` showed a Ki of 1.1 nM.
For `CCc1cc(OCc2ccc3c(-c4nnn[nH]4)cc4ccccc4c(=O)c3c2)c2c(n1)CCCC2` the value was 1.3 nM; for `CCc1cc(OCc2ccc3c(-c4nnn[nH]4)cc4ccccc4c(=O)c3c2)c2ccccc2n1`, 0.65 nM; for `CCCc1nc2c(C)cc(C)nc2n1Cc1ccc2c(c1)Cc1ccccc1C=C2c1nnn[nH]1`, 0.49 nM.
For `CCOc1nc2cccc(C(=O)O)c2n1Cc1ccc2c(-c3nnn[nH]3)cc3ccccc3c(=O)c2c1` the value was 2.7 nM; for `CCc1cc(OCc2ccc3c(-c4nnn[nH]4)cc4ccccc4c(=O)c3c2)c2nc(OC)ccc2n1`, 0.48 nM; for `CCCc1nc2c(C)cc(C)nc2n1Cc1ccc2c(-c3nnn[nH]3)cc3ccccc3c(=O)c2c1`, 0.29 nM.
In the case of `Cc1cc(OCc2ccc3c(-c4nnn[nH]4)cc4ccccc4c(=O)c3c2)c2c(n1)CCCC2`, the Ki was determined as 4.3 nM.
For `CCCCc1nc(Cl)c(C(=O)O)n1Cc1ccc2c(-c3nnn[nH]3)cc3ccccc3c(=O)c2c1` the value was 2.1 nM.
As to `CCOC(=O)c1c(NCc2ccc3c(-c4nnn[nH]4)cc4ccccc4c(=O)c3c2)cc(C)nc1C`, the affinity corresponds to a Ki of 2.9 nM.
Consider `CCCCc1nc(Cl)c(C=O)n1Cc1ccc2c(-c3nnn[nH]3)cc3ccccc3c(=O)c2c1`, for which the affinity, expressed as Ki, was 12 nM.
The compound `CCCCC(=O)N(Cc1ccc2c(-c3nnn[nH]3)cc3ccccc3c(=O)c2c1)[C@H](C(=O)O)C(C)C` registered a Ki of 8.7 nM.
For the compound `CCOc1nc2cccc(C(=O)O)c2n1Cc1ccc2c(c1)Oc1ccccc1C=C2c1nnn[nH]1`, the Ki worked out at 3.9 nM.
Regarding `Cc1cc(C)c2nc(C3CC3)n(Cc3ccc4c(-c5nnn[nH]5)cc5ccccc5c(=O)c4c3)c2n1`, the Ki is 0.45 nM.
For `CCOC(=O)c1c(OCc2ccc3c(-c4nnn[nH]4)cc4ccccc4c(=O)c3c2)cc(C)nc1C`, the Ki came to 4.3 nM.
